Results from article PMC6695665, “Interrogating the Essential Bacterial Cell Division Protein FtsQ with Fragments Using Target Immobilized NMR Screening (TINS)” (International Journal of Molecular Sciences, 2019).
Like-named read-outs stand apart in the source and are kept apart here.

Assays:
Test in all cases: 1H, […]-HSQC NMR chemical shift perturbation; TINS primary screen (T/R […])
Format in all cases: binding
FtsQ [1] = target: T1, FtsQ (Escherichia coli, UniProt P06136)
T1 construct: soluble periplasmic domain (FtsQp), 15N-labeled, N-terminal tags cleaved by TEV
T1 sequence (P06136 50-276): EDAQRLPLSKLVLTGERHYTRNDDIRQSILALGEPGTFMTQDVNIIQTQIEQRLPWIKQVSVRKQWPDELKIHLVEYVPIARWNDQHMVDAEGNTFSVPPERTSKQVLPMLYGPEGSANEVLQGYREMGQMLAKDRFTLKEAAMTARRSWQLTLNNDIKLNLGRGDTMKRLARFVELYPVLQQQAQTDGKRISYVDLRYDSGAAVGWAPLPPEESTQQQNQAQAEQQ

FtsQ [2] = target: T1, FtsQ; remark: listed apart in the source
FtsQ [3] = target: T1, FtsQ; remark: listed apart in the source

N[C@@H](Cc1cn(Cc2ccccc2)cn1)C(=O)O [compound 1]
Kd (FtsQ [1]): > 1000 µM

C=C1[C@H](O)C[C@@H]2C[C@H]1C2(C)C [compound 2]
Kd (FtsQ [2]): > 1000 µM

CN(C)c1nc(=O)n(C2CCCCC2)c(=O)n1C [compound 3]
Kd (FtsQ [3]): > 1000 µM
